Measured values taken from the supplement of paper PMC11368000.

Assays:
Settings in all cases: exposure time: 90 min
1309 = donor line of iPSC-derived cardiomyocytes; experiment: POD (EC05) for increase in beat frequency (positive chronotrope) vs vehicle; higher = less potent (higher point of departure)
How it was run: (§1)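 For each of 16 donors, iPSC-derived human cardiomyocytes were cultured 14 days in gelatin-coated 384-well plates and given a fluorescent Ca2+ dye for 2 h. Exposure lasted 90 min at 37 °C at 0.1, 1, 10 and 100 µM final, with 0.5% DMSO, and a FLIPR Tetra captured Ca2+ flux at 8 frames/s over 100 s both before and afterwards. Points of departure per donor were estimated by hierarchical Bayesian Hill fits to vehicle-normalised beat frequency, decay-to-rise ratio or peak frequency, using thresholds of 5% change, or 95% loss for peak frequency.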

1434 = donor line of iPSC-derived cardiomyocytes; experiment: as above
How it was run: as §1

1392 = donor line of iPSC-derived cardiomyocytes; experiment: as above
How it was run: as §1

1118 = donor line of iPSC-derived cardiomyocytes; experiment: as above
How it was run: as §1

11235 = donor line of iPSC-derived cardiomyocytes; experiment: as above
How it was run: as §1

30145 = donor line of iPSC-derived cardiomyocytes; experiment: as above
How it was run: as §1

1518 [1] = donor line of iPSC-derived cardiomyocytes; experiment: as above
How it was run: as §1

1531 [2] = donor line of iPSC-derived cardiomyocytes; experiment: as above
How it was run: as §1

1368 = donor line of iPSC-derived cardiomyocytes; experiment: as above
How it was run: as §1

30171 = donor line of iPSC-derived cardiomyocytes; experiment: as above
How it was run: as §1

20032 = donor line of iPSC-derived cardiomyocytes; experiment: as above
How it was run: as §1

1083 = donor line of iPSC-derived cardiomyocytes; experiment: as above
How it was run: as §1

1535 [3] = donor line of iPSC-derived cardiomyocytes; experiment: as above
How it was run: as §1

20084 = donor line of iPSC-derived cardiomyocytes; experiment: as above
How it was run: as §1

1565 = donor line of iPSC-derived cardiomyocytes; experiment: as above
How it was run: as §1

1516 [4] = donor line of iPSC-derived cardiomyocytes; experiment: as above
How it was run: as §1

1518 [5] = experiment: POD (EC05) for increase in Ca2+ transient decay-to-rise ratio (QT prolongation) vs vehicle; higher = less potent (higher point of departure)
How it was run: as §1

1531 [6] = experiment: as above
How it was run: as §1

1535 [7] = experiment: as above
How it was run: as §1

1516 [8] = experiment: as above
How it was run: as §1

Row | Structure (SMILES) | POD vs vehicle 1309 [µM] | POD vs vehicle 1434 [µM] | POD vs vehicle 1392 [µM] | POD vs vehicle 1118 [µM] | POD vs vehicle 11235 [µM] | POD vs vehicle 30145 [µM] | POD vs vehicle 1518 [1] [µM] | POD vs vehicle 1531 [2] [µM] | POD vs vehicle 1368 [µM] | POD vs vehicle 30171 [µM] | POD vs vehicle 20032 [µM] | POD vs vehicle 1083 [µM] | POD vs vehicle 1535 [3] [µM] | POD vs vehicle 20084 [µM] | POD vs vehicle 1565 [µM] | POD vs vehicle 1516 [4] [µM] | POD vs vehicle 1518 [5] [µM] | POD vs vehicle 1531 [6] [µM] | POD vs vehicle 1535 [7] [µM] | POD vs vehicle 1516 [8] [µM]
1 | O=C(O)C(F)(F)C(F)(F)C(F)(F)C(F)(F)C(F)(F)C(F)(F)C(F)(F)F [Perfluorooctanoic_acid] | > 100 | > 100 | > 100 | > 100 | > 100 | > 100 | > 100 | > 100 | > 100 | > 100 | > 100 | > 100 | > 100 | > 100 | > 100 | > 100 | > 100 | > 100 | > 100 | > 100
2 | O=C(O)C(F)(F)C(F)(F)C(F)(F)C(F)(F)F [Perfluoropentanoic_acid] | > 100 | > 100 | > 100 | > 100 | > 100 | > 100 | > 100 | > 100 | > 100 | > 100 | > 100 | > 100 | > 100 | > 100 | > 100 | > 100 | > 100 | > 100 | > 100 | > 100
3 | O=C(O)C(F)(F)C(F)(F)F [Perfluoropropanoic_acid] | > 100 | > 100 | > 100 | > 100 | > 100 | > 100 | > 100 | > 100 | > 100 | > 100 | > 100 | > 100 | > 100 | > 100 | > 100 | > 100 | > 100 | 0.307 | > 100 | > 100
4 | O=C(O)C(F)(F)C(F)(F)C(F)(F)C(F)(F)C(F)(F)C(F)(F)C(F)(F)C(F)(F)C(F)(F)C(F)(F)F [Perfluoroundecanoic_acid] | > 100 | > 100 | > 100 | > 100 | > 100 | > 100 | > 100 | > 100 | > 100 | > 100 | > 100 | > 100 | > 100 | > 100 | > 100 | > 100 | 17.4 | > 100 | > 100 | > 100
